# According to US12606571B2, “Macrocyclic compounds and uses thereof” (TURNING POINT THERAPEUTICS, INC., priority 2017, dated 2026):
# Columns and labels:
# MC38 syngeneic tumors = experiment: Combination efficacy study with PD-1 antibody in MC38 syngeneic model; assay type: in vivo, mouse
# Description: C57BL/6J female mice (6 weeks) were purchased from the Jackson Laboratory, and maintained in accordance with the guidelines for the care and use of laboratory animals. Half million MC38 cancer cells in 100 μL serum-free medium were implanted subcutaneously in the right flank region of the mouse. Tumor size and body weight were measured on designated days. Tumor size was measured with an electronic caliper and tumor volume was calculated as the product of length*width^2*0.5. […] Vehicle control, Compound 5, PD-1 antibody or Compound 5 plus PD-1 antibody were administered orally (BID) at determined doses.
# Anti-tumor effects of Compound 5 combined with PD-1 antibody on MC38 syngeneic tumors was analyzed by tumor volume. The average tumor volume of vehicle control group (G1) on day 20 was 1938.58±729.41, Compound 5 treated group (G2) was 1220.03±521.39 mm3, PD-1 antibody treatment group was 821.24±767.16, and Compound 5 plus PD-1 antibody treatment was 515.63±350.47.
# HCC827 cells = experiment: Apoptosis of HCC827 cells; assay type: cell-based, human; details: 48 hour incubation, combination with AZD9291
# [1] = tested on: MET phosphorylation and downstream signaling in MKN-45 cells; experiment: Immunoblotting for cellular kinase phosphorylation, MKN-45; assay type: cell-based; details: 16 hour incubation
# Description: (§1) Half a million cells per well were seeded in 24 well plate for 24 hrs, and then treated with compounds for 4 hours. Cells were collected after treatment and lysed in RIPA buffer (50 mM Tris, pH 7.4, 150 mM NaCl, 1% NP-40, 0.5% Deoxycholate, 0.1% SDS) supplemented with 10 mM EDTA, 1× Halt protease and phosphatase inhibitors (Thermo Scientific). […] Membranes were incubated with chemiluminescent substrate for 5 min at room temperature (SuperSignal West Femto, Thermo Scientific). The chemiluminescent images were acquired with a C-DiGit Imaging System (LI-COR Biosciences). The relative density of the chemiluminescent bands were quantified via Image Studio Digits from LICOR. The half inhibitory concentration (IC50) value is calculated using non-linear regression analysis through GraphPad Prism software (GraphPad, Inc., San Diego, CA).
# [2] = tested on: MET phosphorylation and downstream signaling in SNU-5 cells; experiment: Immunoblotting for cellular kinase phosphorylation, SNU-5; assay type: cell-based, human; details: 4 hour incubation
# Description: as §1
smiles,measurement,setting,value
"CCN1Cc2c(ccc(F)c2C#N)O[C@@H](C)CNC(=O)c2c(N)nn3ccc1nc23 [Compound 5, (7S)-3-amino-14-ethyl-11-fluoro-7-methyl-4-oxo-4,5,6,7,13,14-hexahydro-1,15-ethenopyrazolo[4,3-f][1,4,8,10]benzoxatriazacyclotridecine-12-carbonitrile]",average tumor volume,MC38 syngeneic tumors; day 20,1220.03±521.39 mm3
same,body weight and overt abnormality,"MC38 syngeneic tumors; mouse, in vivo",No body weight loss and overt abnormality
same,apoptosis of HCC827 cells,HCC827 cells,synergized with AZD9291
same,phosphorylation of MET and downstream effectors (gel),[1],inhibited
same,MET phosphorylation (gel),[2],inhibited
